The compounds below were run against T1, human PAH with the R408W mutation (Homo sapiens, UniProt P00439, R408W) (assay: Cell Based Phenylalanine Flux Assay). Details: A375 cells expressing human R408W PAH; 24 hrs compound incubation; 13C-Tyrosine by LC-MS; average where tested multiple times; read-out: AC50.
T1 construct: expressed in transfected cells
T1 sequence (P00439 1-452 R408W): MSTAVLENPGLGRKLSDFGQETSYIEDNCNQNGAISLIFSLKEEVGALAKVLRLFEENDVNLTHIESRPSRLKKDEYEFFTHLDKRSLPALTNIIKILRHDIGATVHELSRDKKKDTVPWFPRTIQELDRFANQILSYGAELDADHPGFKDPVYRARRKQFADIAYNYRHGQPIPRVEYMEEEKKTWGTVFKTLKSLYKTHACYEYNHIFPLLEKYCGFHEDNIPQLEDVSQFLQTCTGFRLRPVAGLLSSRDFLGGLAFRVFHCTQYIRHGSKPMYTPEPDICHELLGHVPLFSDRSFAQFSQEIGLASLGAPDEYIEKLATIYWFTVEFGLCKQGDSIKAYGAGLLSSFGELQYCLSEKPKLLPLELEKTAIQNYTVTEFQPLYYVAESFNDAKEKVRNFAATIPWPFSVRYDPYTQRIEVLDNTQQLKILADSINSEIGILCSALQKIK
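Also: after compound treatment, cells received sepiapterin plus isotope-labelled Phenylalanine for 4 hours, then labelled Tyrosine in the medium was quantified, 10-point 2-fold dilution series run in duplicate.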

AC50	SMILES
1000 to 5000 nM	Cc1cccc(-c2nnc(C(=O)N3CCc4[nH]cnc4[C@@H]3c3cc4c(C(F)(F)F)cccn4n3)o2)n1 [Example 1432, (R)-(5-(6-methylpyridin-2-yl)-1,3,4-oxadiazol-2-yl)(4-(4-(trifluoromethyl)pyrazolo[1,5-a]pyridin-2-yl)-6,7-dihydro-1H-imidazo[4,5-c]pyridin-5(4H)-yl)methanone]
500 to 1000 nM	Cn1ccc(-c2nnc(C(=O)N3CCc4[nH]cnc4[C@H]3c3cc4cccc(C(F)F)n4n3)o2)n1 [Example 1438, (S)-(4-(7-(difluoromethyl)pyrazolo[1,5-a]pyridin-2-yl)-6,7-dihydro-1H-imidazo[4,5-c]pyridin-5(4H)-yl)(5-(1-methyl-1H-pyrazol-3-yl)-1,3,4-oxadiazol-2-yl)methanone]
> 5000 nM	Cn1ccc(-c2nnc(C(=O)N3CCc4[nH]cnc4[C@@H]3c3cc4cccc(C(F)F)n4n3)o2)n1 [Example 1439, (R)-(4-(7-(difluoromethyl)pyrazolo[1,5-a]pyridin-2-yl)-6,7-dihydro-1H-imidazo[4,5-c]pyridin-5(4H)-yl)(5-(1-methyl-1H-pyrazol-3-yl)-1,3,4-oxadiazol-2-yl)methanone]
500 to 1000 nM	O=C(c1nnc(-c2cnn(C(F)F)c2)o1)N1CCc2[nH]cnc2[C@H]1c1cc2cccc(C(F)F)n2n1 [Example 1440, (S)-(5-(1-(difluoromethyl)-1H-pyrazol-4-yl)-1,3,4-oxadiazol-2-yl)(4-(7-(difluoromethyl)pyrazolo[1,5-a]pyridin-2-yl)-6,7-dihydro-1H-imidazo[4,5-c]pyridin-5(4H)-yl)methanone]
> 5000 nM	O=C(c1nnc(-c2cnn(C(F)F)c2)o1)N1CCc2[nH]cnc2[C@@H]1c1cc2cccc(C(F)F)n2n1 [Example 1441, (R)-(5-(1-(difluoromethyl)-1H-pyrazol-4-yl)-1,3,4-oxadiazol-2-yl)(4-(7-(difluoromethyl)pyrazolo[1,5-a]pyridin-2-yl)-6,7-dihydro-1H-imidazo[4,5-c]pyridin-5(4H)-yl)methanone]
< 500 nM	O=C(c1nnc(-c2ccn(C(F)F)n2)o1)N1CCc2[nH]cnc2[C@H]1c1cc2cccc(C(F)F)n2n1 [Example 1442, (S)-(5-(1-(difluoromethyl)-1H-pyrazol-3-yl)-1,3,4-oxadiazol-2-yl)(4-(7-(difluoromethyl)pyrazolo[1,5-a]pyridin-2-yl)-6,7-dihydro-1H-imidazo[4,5-c]pyridin-5(4H)-yl)methanone]
< 500 nM	O=C(c1nnc(-c2cnn(C(F)(F)F)c2)o1)N1CCc2[nH]cnc2[C@H]1c1cc2cccc(Cl)n2n1 [Example 1444, (S)-(4-(7-chloropyrazolo[1,5-a]pyridin-2-yl)-6,7-dihydro-1H-imidazo[4,5-c]pyridin-5(4H)-yl)(5-(1-(trifluoromethyl)–1H-pyrazol-4-yl)-1,3,4-oxadiazol-2-yl)methanone]
> 5000 nM	Cc1cccc2cc([C@H]3c4nc[nH]c4CCN3C(=O)c3nnc(-c4cnn(C(F)(F)F)c4)o3)nn12 [Example 1447, (R)-(4-(7-methylpyrazolo[1,5-a]pyridin-2-yl)-6,7-dihydro-1H-imidazo[4,5-c]pyridin-5(4H)-yl)(5-(1-(trifluoromethyl)-1H-pyrazol-4-yl)-1,3,4-oxadiazol-2-yl)methanone]
500 to 1000 nM	CC(C)c1nnc(C(=O)N2CCc3[nH]cnc3[C@H]2c2cc3ccccn3n2)o1 [Example 1448, (S)-(5-isopropyl-1,3,4-oxadiazol-2-yl)(4-(pyrazolo[1,5-a]pyridin-2-yl)-6,7-dihydro-1H-imidazo[4,5-c]pyridin-5(4H)-yl)methanone]
1000 to 5000 nM	CC(C)c1nnc(C(=O)N2CCc3[nH]cnc3[C@@H]2c2cc3ccccn3n2)o1 [Example 1449, (R)-(5-isopropyl-1,3,4-oxadiazol-2-yl)(4-(pyrazolo(1,5-a]pyridin-2-yl)-6,7-dihydro-1H-imidazo[4,5-c]pyridin-5(4H)-yl)methanone]
< 500 nM	Cc1cccn2nc([C@@H]3c4nc[nH]c4CCN3C(=O)c3nnc(C(C)C)o3)cc12 [Example 1450, (S)-(5-isopropyl-1,3,4-oxadiazol-2-yl)(4-(4-methylpyrazolo[1,5-a]pyridin-2-yl)-6,7-dihydro-1H-imidazo[4,5-c]pyridin-5(4H)-yl)methanone]
> 5000 nM	Cc1cccn2nc([C@H]3c4nc[nH]c4CCN3C(=O)c3nnc(C(C)C)o3)cc12 [Example 1451, (R)-(5-isopropyl-1,3,4-oxadiazol-2-yl)(4-(4-methylpyrazolo[1,5-a]pyridin-2-yl)-6,7-dihydro-1H-imidazo[4,5-c]pyridin-5(4H)-yl)methanone]
< 500 nM	CC(C)c1nnc(C(=O)N2CCc3[nH]cnc3[C@H]2c2cc3c(F)cccn3n2)o1 [Example 1452, (S)-(4-(4-fluoropyrazolo[1,5-a]pyridin-2-yl)-6,7-dihydro-1H-imidazo[4,5-c]pyridin-5(4H)-yl)(5-isopropyl-1,3,4-oxadiazol-2-yl)methanone]
> 5000 nM	Clc1cccn2nc([C@H]3c4nc[nH]c4CCN3c3nnc(C4CC4)o3)cc12 [Example 1454, (R)-2-(4-(4-chloropyrazolo[1,5-a]pyridin-2-yl)-1,4,6,7-tetrahydro-5H-imidazo[4,5-c]pyridin-5-yl)-5-cyclopropyl-1,3,4-oxadiazole]
< 500 nM	Clc1cccn2nc([C@@H]3c4nc[nH]c4CCN3c3nnc(C4CC4)o3)cc12 [Example 1455, (S)-2-(4-(4-chloropyrazolo[1,5-a]pyridin-2-yl)-1,4,6,7-tetrahydro-5H-imidazo[4,5-c]pyridin-5-yl)-5-cyclopropyl-1,3,4-oxadiazole]
< 500 nM	Cn1ccc(-c2nnc(C(=O)N3CCc4[nH]cnc4[C@H]3c3cc4cccc(F)n4n3)o2)n1 [Example 1456, (S)-(4-(7-fluoropyrazolo[1,5-a]pyridin-2-yl)-6,7-dihydro-1H-imidazo[4,5-c]pyridin-5(4H)-yl)(5-(1-methyl-1H-pyrazol-3-yl)-1,3,4-oxadiazol-2-yl)methanone]
1000 to 5000 nM	Cn1ccc(-c2nnc(C(=O)N3CCc4[nH]cnc4[C@@H]3c3cc4cccc(F)n4n3)o2)n1 [Example 1457, (R)-(4-(7-fluoropyrazolo[1,5-a]pyridin-2-yl)-6,7-dihydro-1H-imidazo[4,5-c]pyridin-5(4H)-yl)(5-(1-methyl-1H-pyrazol-3-yl)-1,3,4-oxadiazol-2-yl)methanone]
1000 to 5000 nM	O=C(c1nnc(-c2ncccc2F)o1)N1CCc2[nH]cnc2[C@@H]1c1cc2cccc(F)n2n1 [Example 1458, (R)-(4-(7-fluoropyrazolo[1,5-a]pyridin-2-yl)-6,7-dihydro-1H-imidazo[4,5-c]pyridin-5(4H)-yl)(5-(3-fluoropyridin-2-yl)-1,3,4-oxadiazol-2-yl)methanone]
< 500 nM	O=C(c1nnc(-c2ncccc2F)o1)N1CCc2[nH]cnc2[C@H]1c1cc2cccc(F)n2n1 [Example 1459, (S)-(4-(7-fluoropyrazolo[1,5-a]pyridin-2-yl)-6,7-dihydro-1H-imidazo[4,5-c]pyridin-5(4H)-yl)(5-(3-fluoropyridin-2-yl)-1,3,4-oxadiazol-2-yl)methanone]
500 to 1000 nM	O=C(c1nnc(-c2cnccn2)o1)N1CCc2[nH]cnc2[C@H]1c1cc2cccc(F)n2n1 [Example 1461, (S)-(4-(7-fluoropyrazolo[1,5-a]pyridin-2-yl)-6,7-dihydro-1H-imidazo[4,5-c]pyridin-5(4H)-yl)(5-(pyrazin-2-yl)-1,3,4-oxadiazol-2-yl)methanone]
< 500 nM	Cc1c(-c2nnc(C(=O)N3CCc4[nH]cnc4[C@H]3c3cc4cccc(F)n4n3)o2)cnn1C [Example 1462, (S)-(5-(1,5-dimethyl-1H-pyrazol-4-yl)-1,3,4-oxadiazol-2-yl)(4-(7-fluoropyrazolo[1,5-a]pyridin-2-yl)-6,7-dihydro-1H-imidazo[4,5-c]pyridin-5(4H)-yl)methanone]
1000 to 5000 nM	Cc1c(-c2nnc(C(=O)N3CCc4[nH]cnc4[C@@H]3c3cc4cccc(F)n4n3)o2)cnn1C [Example 1463, (R)-(5-(1,5-dimethyl-1H-pyrazol-4-yl)-1,3,4-oxadiazol-2-yl)(4-(7-fluoropyrazolo[1,5-a]pyridin-2-yl)-6,7-dihydro-1H-imidazo[4,5-c]pyridin-5(4H)-yl)methanone]
1000 to 5000 nM	Cc1cccc(-c2nnc(C(=O)N3CCc4[nH]cnc4[C@@H]3c3cc4c(C(F)F)cccn4n3)o2)n1 [Example 1464, (R)-(4-(4-(difluoromethyl)pyrazolo[1,5-a]pyridin-2-yl)-6,7-dihydro-1H-imidazo[4,5-c]pyridin-5(4H)-yl)(5-(6-methylpyridin-2-yl)-1,3,4-oxadiazol-2-yl)methanone]
< 500 nM	Cc1cccc(-c2nnc(C(=O)N3CCc4[nH]cnc4[C@H]3c3cc4c(C(F)F)cccn4n3)o2)n1 [Example 1465, (S)-(4-(4-(difluoromethyl)pyrazolo[1,5-a]pyridin-2-yl)-6,7-dihydro-1H-imidazo[4,5-c]pyridin-5(4H)-yl)(5-(6-methylpyridin-2-yl)-1,3,4-oxadiazol-2-yl)methanone]
1000 to 5000 nM	Cc1nn(C)cc1-c1nnc(C(=O)N2CCc3[nH]cnc3[C@@H]2c2cc3c(C(F)F)cccn3n2)o1 [Example 1467, (R)-(4-(4-(difluoromethyl)pyrazolo[1,5-a]pyridin-2-yl)-6,7-dihydro-1H-imidazo[4,5-c]pyridin-5(4H)-yl)(5-(1,3-dimethyl-1H-pyrazol-4-yl)-1,3,4-oxadiazol-2-yl)methanone]
